Measurements from PubChem BioAssay AID2060613 (Molecular Pharmacology Branch, DTP, NCI, 2025).
Values joined by “and” are separate entries in the source; they are usually repeats but may differ in a detail not shown here. Identical values can stand only once.

Test system: 233499-124-R-J3-PDC complex spheroid viability
Experiment: Anticancer human tumor 233499-124-R-J3-PDC patient-derived colon adenocarcinoma cell line growth inhibition [CLK]
Conditions: for viability, T/C: stronger effect = lower value
Description: A high-throughput screen of multi-cell type tumor spheroids was designed to identify active combinations of […] and targeted small molecules. Complex spheroids include a stromal component modeled by human endothelial cells (HUVEC) and fibroblasts modeled by human mesenchymal stem cells (MSCs). The concentration ranges selected for each drug and investigational agent were based upon clinically achievable concentrations if the clinical Cmax of the agent was known.
Compounds. The drugs and investigational agents: cirtuvivint (SM08502; NSC835563), CC-671 (NSC850746), vemurafenib (NSC761431), tapotoclax (NSC804041), sotorasib (NSC818433), adagrasib (NSC831453), MRTX-1133 (NSC836407), BAY2416964 (NSC825713), copanlisib (NSC816437), inavolisib (NSC800729), abemaciclib (NSC768073), osimertinib (NSC779217), entinostat (NSC756642), eltanexor (KPT-8602, NSC794443), venetoclax (NSC766270), ceralasertib (NSC777638), bortezomib (NSC756655), olaparib (NSC753686), talazoparib (NSC767125), alisertib (NSC759677), peposertib (NSC802822), gemcitabine (NSC613327), 5-fluorouracil (NSC19893), SN-38 (NSC673596), oxaliplatin (NSC266046), paclitaxel (NSC125973), and doxorubicin (NSC123127), were obtained from the National Cancer Institute (NCI) Developmental Therapeutics Program Chemical Repository. The FDA-approved anticancer drug set is available from the Developmental Therapeutics Program at https://dtp.cancer.gov/organization/dscb/obtaining/available plates.htm. […] The stock solutions were prepared in dimethyl sulfoxide (DMSO, Sigma-Aldrich, St. Louis, MO, cat. D2650), except for the platinum complexes which were prepared in saline (Quality Biological, Gaithersburg, MD, cat. 114-055-101), at 800-fold the tested concentration and stored at -70 degrees C prior to their use. All drugs and investigational agents were tested over a range starting from a high concentration at or near the clinical Cmax and decreasing in half-log increments. If the clinical Cmax for an agent had not been determined, the highest concentration tested was 10 microM.
Cell Culture. All cells were maintained in an incubator at 37 degrees C and 5% CO2 with 95% humidity. The PDC lines were cultured according to standard operating procedures established by the NCI PDMR. Briefly, all PDCs were thawed and cultured in Matrigel-coated flasks prepared with a working solution of 1X Ham's F-12 nutrient mix, without supplementation (Invitrogen, Waltham, MA, cat. 11765054), 100 U/mL penicillin-streptomycin (Invitrogen, cat. 15140122), and 2.5% Matrigel (Corning Inc., Corning, NY, cat. 354248) for the first three passages. The 947758-054-R-J2-PDC line was cultured in 6B/Colon 1A media, which includes advanced DMEM/F-12 (Thermo Fisher Scientific, cat. 12634028), 10 mM HEPES (Thermo Fisher Scientific, cat. 15630080), 1X GlutaMAX supplement (Thermo Fisher Scientific, cat. 35050061), 0.1 mg/mL primocin (InvivoGen, cat. ant-pm-2), 10% defined fetal bovine serum, heat inactivated (HyClone Laboratories Inc., cat. SH30070.03HI), 1.25 mM N-Acetyl-L-cysteine (Sigma-Aldrich, cat. A9165), 10 mM nicotinamide (Sigma-Aldrich, cat. N0636), 1X B-27 supplement (Thermo Fisher Scientific, cat. 17504044), 1X N-2 supplement (Thermo Fisher Scientific, cat. 17502048), and 10 microM Y-27632 dihydrochloride (Tocris Bioscience, cat. 1254). The 876862-298-R-J1-PDC was cultured in 6E media, which includes all 6B/Colon 1A media components plus 50% L-WRN conditioned media (ATCC, cat. CRL-3276), 50 ng/mL recombinant human EGF recombinant protein (hEGF; Thermo Fisher Scientific, cat. PHG0311), 10 ng/mL recombinant human fibroblast growth factor 10 (hGFG-10; PeproTech, cat. 100-26), 1 ng/mL recombinant human fibroblast growth factor 2 (hFGF-2; PeproTech, cat. 100-18B), and 1 µM prostaglandin E2 (PGE2; Tocris, cat. 2296). The 227483-062-R1-J1-PDC line was cultured in Panc media, containing all 6E components except hFGF-2, with the addition of 500 nM SB-431542 (Selleckchem, cat. S1067) and 10 nM gastrin (Tocris, cat. 3006). […]
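Further: spheroids exposed to the drug combinations for seven days.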
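Wherever viability, T/C is given: percent viability relative to DMSO vehicle control wells taken as 100%.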

C=CC(=O)N1CCN(c2nc(=O)n(-c3c(C)ccnc3C(C)C)c3nc(-c4c(O)cccc4F)c(F)cc23)C(C)C1 (stereo unspecified)
viability, T/C (compound 0.0316 µM): 90.5% and 101%
viability, T/C (compound 0.1 µM): 81.9% and 87.6%
viability, T/C (compound 0.316 µM): 90.6% and 110%
viability, T/C (compound 1 µM): 87.6% and 101%
viability, T/C (compound 3.16 µM): 95% and 104%
viability, T/C (compound 10 µM): 96% and 92.6%
IC50 (curve of compound): > 10 µM

O=C(c1cc(Cc2n[nH]c(=O)c3ccccc23)ccc1F)N1CCN(C(=O)C2CC2)CC1
viability, T/C (compound 0.0316 µM): 89.8% and 102%
viability, T/C (compound 0.1 µM): 91.5% and 89.6%
viability, T/C (compound 0.316 µM): 104%
viability, T/C (compound 1 µM): 105% and 92.8%
viability, T/C (compound 3.16 µM): 107%
viability, T/C (compound 10 µM): 86% and 115%
IC50 (curve of compound): > 10 µM

C=CC(=O)N1CCN(c2nc(=O)n(-c3c(C)ccnc3C(C)C)c3nc(-c4c(O)cccc4F)c(F)cc23)C(C)C1 (stereo unspecified) + CNC(=O)c1ccc(Nc2nc(OC3CCCC3)c3c(-c4ccc5nc(C)oc5c4)c[nH]c3n2)c(OC)c1
IC50 (curve of first compound, second compound 0.0316 µM): > 10 µM
IC50 (curve of first compound, second compound 0.1 µM): > 10 µM
IC50 (curve of first compound, second compound 0.316 µM): > 10 µM
IC50 (curve of first compound, second compound 1 µM): > 10 µM
IC50 (curve of first compound, second compound 3.16 µM): > 10 µM
IC50 (curve of first compound, second compound 10 µM): > 10 µM
viability, T/C (second compound 0.0316 µM, first compound 0.0316 µM): 84.8%
viability, T/C (second compound 0.0316 µM, first compound 0.1 µM): 86.5%
viability, T/C (second compound 0.0316 µM, first compound 0.316 µM): 94.4%
viability, T/C (second compound 0.0316 µM, first compound 1 µM): 93.6%
viability, T/C (second compound 0.0316 µM, first compound 3.16 µM): 96.3%
viability, T/C (second compound 0.0316 µM, first compound 10 µM): 98.3%
viability, T/C (second compound 0.1 µM, first compound 0.0316 µM): 79.6%
viability, T/C (second compound 0.1 µM, first compound 0.1 µM): 71.6%
viability, T/C (second compound 0.1 µM, first compound 0.316 µM): 72.6%
viability, T/C (second compound 0.1 µM, first compound 1 µM): 79.7%
viability, T/C (second compound 0.1 µM, first compound 3.16 µM): 85.2%
viability, T/C (second compound 0.1 µM, first compound 10 µM): 77.5%
viability, T/C (second compound 0.316 µM, first compound 0.0316 µM): 75.9%
viability, T/C (second compound 0.316 µM, first compound 0.1 µM): 76.4%
viability, T/C (second compound 0.316 µM, first compound 0.316 µM): 75.8%
viability, T/C (second compound 0.316 µM, first compound 1 µM): 75.4%
viability, T/C (second compound 0.316 µM, first compound 3.16 µM): 80.5%
viability, T/C (second compound 0.316 µM, first compound 10 µM): 82.8%
viability, T/C (second compound 1 µM, first compound 0.0316 µM): 81.2%
viability, T/C (second compound 1 µM, first compound 0.1 µM): 73.7%
viability, T/C (second compound 1 µM, first compound 0.316 µM): 74.3%
viability, T/C (second compound 1 µM, first compound 1 µM): 87.5%
viability, T/C (second compound 1 µM, first compound 3.16 µM): 90%
viability, T/C (second compound 1 µM, first compound 10 µM): 86.4%
viability, T/C (second compound 3.16 µM, first compound 0.0316 µM): 68.5%
viability, T/C (second compound 3.16 µM, first compound 0.1 µM): 71.3%
viability, T/C (second compound 3.16 µM, first compound 0.316 µM): 65.7%
viability, T/C (second compound 3.16 µM, first compound 1 µM): 86.7%
viability, T/C (second compound 3.16 µM, first compound 3.16 µM): 80.5%
viability, T/C (second compound 3.16 µM, first compound 10 µM): 76.7%
viability, T/C (second compound 10 µM, first compound 0.0316 µM): 71.2%
viability, T/C (second compound 10 µM, first compound 0.1 µM): 78.4%
viability, T/C (second compound 10 µM, first compound 0.316 µM): 69.6%
viability, T/C (second compound 10 µM, first compound 1 µM): 74.8%
viability, T/C (second compound 10 µM, first compound 3.16 µM): 81%
viability, T/C (second compound 10 µM, first compound 10 µM): 91.2%
